Results on three compounds are retold here after PMC10288505, “Photoswitchable Calixarene Activators for Controlled Peptide Transport across Lipid Membranes” (Journal of the American Chemical Society, 2023).

Each structure is given as a SMILES string.

In one data set the test system is HeLa cells. Nature of the data set: MTT viability assay. Conditions: 24 h of incubation, 4-parameters logistic fit, triplicate, read-out: IC50 cytotoxicity. Type of data set: cell-based. The method, then: Success in artificial vesicle assays encouraged us to conduct transport experiments of fluorescently labeled peptides in living cells (Figure 5). We first employed confocal fluorescence microscopy to evaluate counterion activator 2 for the intracellular transport of a carboxytetramethylrhodamine-labeled R8 peptide (TAMRA-R8) into the cytosol of HeLa cells. Cationic peptides usually remain trapped inside the endosomes when incubated with cells at low μM concentrations.[32],[44] […] The cytometry experiments validated the E isomer selective transport and indicated a four-fold intracellular delivery enhancement (Figure 5C and Figure S52). […]
measured on a Guava easyCyte BG HT collecting the emission at 583/26 nm (Yellow-G channel), using InCyte v3.2 (GuavaSoft, Millipore). Cells with typical FSC and SSC parameters were selected and the mean fluorescence intensity was calculated for each sample. Each condition was measured in quadruplicate. […]
Afterwards, samples were removed and replaced with 100 µL of fresh complete DMEM supplemented with 0.5 mg/mL MTT. […] The absorbance at 570 nm was measured with a plate reader (Tecan Infinite F200Pro) and the data normalized to the value of untreated cells (100% viability), after blank subtraction (cells previously treated with Triton X-100). Each condition was measured in triplicate. […]

The nature of data set [1]: Light-modulated CF dye efflux assay (in situ irradiation at 500 nm). It counts as biochemical. The method, then: To this aim, Z-1 and Z-2 were added to EYPC-LUV⊃CF dispersions at fixed concentrations to study the CF release upon in situ light stimulation. […] Irradiation with 500 nm light promotes the conversion of Z-2 into E-2, a stronger counterion activator, leading to ca. 50% of extra dye released as a result of the light-triggered translocation of R6 into the liposome (Figure 4 iii).
Figure 4 (A) Light-modulated dye efflux assays performed with 4 μM R6, 60 nM Z-2, and 15 μΜ EYPC-LUV⊃CF (50 mM CF inside the liposome) and (B) schematization of each phase in the assay. (i) First, the activator Z-2 was added to a liposome solution (ii) followed by the addition of the peptide. (iii) The same sample was irradiated for 25 min at 500 nm, leading to a significant increase in CF release. (iv) Finally, in order to normalize the measurement for the maximum emission possible, the vesicles were lysed by addition of a small aliquot of Triton X-100. […]
until the emission stabilizes and a maximum of release is reached. If the counterion activator has the capacity to activate the transport, CF should be co-transported to the exterior of the liposome with the influx of the counterion-peptide complex. Finally, Triton X-100 is added to the solution to dissolve the vesicles and obtain the maximum amount of CF that could be released from the liposomes and emit in the […]
EC50 and Ymax values were calculated from the values of corrected emission at the plateau that is reached, according to previously reported assays.7
Light-activated release assays. The light-modulation offered by this novel counterion activator was tested by performing dye efflux assays as previously described, with the addition of an interval in the measurement where the solution was irradiated at 500 nm. […]
Figure S44 - Light-modulated dye efflux assays done with the peptide A) R6, 4 µM, and B) R8, 5 µM, with a fixed concentration of Z-1 of 0.20 µM for both assays. 40 µM of EYPC-LUV and 20 µΜ EYPC-LUV⊃CF (50 mM of CF) were used in the first assay and 30 µM of EYPC-LUV and 7 µΜ EYPC-LUV⊃CF (50 mM of CF) were used in the latter. The assay was performed in the same way as the dye release assays (addition of the peptide marked with a red dashed arrow) with an additional irradiation step for an interval of 30 to 40 min (marked with a black arrow), leading to an increase in release of ~15% for the peptide R6 and only 7% for the peptide R8. […]
Figure S45 - Light-modulated dye efflux assay done with the peptide R8, 4 µM, with a fixed concentration of Z-2 of 16 nM. 15 µΜ of EYPC-LUV⊃CF (50 mM of CF) were used and the light activation step was done with a single 25 min irradiation cycle at 500 nm (marked with a black arrow). The increase of release obtained was of 14%. […]

With `CCCCc1ccc(/N=N/c2ccc(OCCCOc3c4cc(S(=O)(=O)[O-])cc3Cc3cc(S(=O)(=O)[O-])cc(c3O)Cc3cc(S(=O)(=O)[O-])cc(c3O)Cc3cc(S(=O)(=O)[O-])cc(c3O)C4)cc2)cc1.[Li+].[Li+].[Li+].[Li+]` [E-2], the IC50 (in general, the concentration that gives 50% inhibition) in the data set on HeLa cells turned out to be 16.9 µM.
`O=S(=O)([O-])c1cc2c(O)c(c1)Cc1cc(S(=O)(=O)[O-])cc(c1O)Cc1cc(S(=O)(=O)[O-])cc(c1OCCCCCCOc1ccc(/N=N\c3ccccc3)cc1)Cc1cc(S(=O)(=O)[O-])cc(c1O)C2.[Li+].[Li+].[Li+].[Li+]` [Z-1]: the “Increase in CF release upon irradiation, R6” value in data set [1] (4 µM R6, 0.20 µM Z-1, 40 µM EYPC-LUV and 20 µM EYPC-LUV⊃CF (50 mM CF), irradiation 30 to 40 min at 500 nm) is ~ 15%. Besides, the “Increase in CF release upon irradiation, R8” value in data set [1] (5 µM R8, 0.20 µM Z-1, 30 µM EYPC-LUV and 7 µM EYPC-LUV⊃CF (50 mM CF), irradiation 30 to 40 min at 500 nm) is on record as 7%.
For the compound `CCCCc1ccc(/N=N\c2ccc(OCCCOc3c4cc(S(=O)(=O)[O-])cc3Cc3cc(S(=O)(=O)[O-])cc(c3O)Cc3cc(S(=O)(=O)[O-])cc(c3O)Cc3cc(S(=O)(=O)[O-])cc(c3O)C4)cc2)cc1.[Li+].[Li+].[Li+].[Li+]` [Z-2], in the data set with HeLa cells, the IC50 was 19.2 µM. Moreover, in data set [1] (4 μM R6, 60 nM Z-2, 15 μM EYPC-LUV⊃CF (50 mM CF), irradiated 25 min at 500 nm), the “Extra dye released upon irradiation at 500 nm, R6” value was “ca. 50%”. In data set [1] (4 µM R8, 16 nM Z-2, 15 µM EYPC-LUV⊃CF (50 mM CF), single 25 min irradiation cycle at 500 nm), the “Increase in CF release upon irradiation, R8” value is on record as 14%.
